We go through 39 molecules from ChEMBL document CHEMBL5038649, “Chemical Space Expansion of Flavonoids: Induction of Mitotic Inhibition by Replacing Ring B with a 10π-Electron System, Benzo[b]thiophene” (J Nat Prod, 2022).

As usually defined, the IC50 is the concentration needed to halve the response being measured.

Common to all, as to assay type: functional, cell-based
Assay [1] deals with KB. The assay can be described thus: Antiproliferative activity against human KB cells assessed as reduction in cell viability after 72 hrs by SRB assay.
Assay [2] relates to A549. The assay can be described thus: Antiproliferative activity against human A549 cells assessed as reduction in cell viability after 72 hrs by SRB assay. As to conditions: A549, 72 h. In general terms: The SRB assay estimates cell density from bound dye.
Assay [3] relates to MDA-MB-231. The assay can be described thus: Antiproliferative activity against human MDA-MB-231 cells assessed as reduction in cell viability after 72 hrs by SRB assay. The settings on record: MDA-MB-231, 72 h.
Assay [4] is described as follows: Antiproliferative activity against human KB-VIN cells assessed as reduction in cell viability after 72 hrs by SRB assay. As to conditions: KBVIN.
For assay [5], the system named is MCF7. Briefly: Antiproliferative activity against human MCF7 cells assessed as reduction in cell viability after 72 hrs by SRB assay. The settings on record: MCF7, 72 h.

A value given as a limit tells only on which side of the number the result lay.

As for `O=c1c(-c2csc3ccccc23)coc2ccccc12`, the half-inhibitory concentration (IC50) in assay [1], in assay [2], in assay [3], in assay [4] and in assay [5] was above 10 µM in each case.
As to `O=C(/C=C/c1ccccc1)c1c(O)ccc2ccccc12`, the IC50 in assay [1], in assay [2], in assay [3], in assay [4] and in assay [5] was above 10 µM each time.
Take `CCOc1c(OC)cc2occ(-c3csc4ccccc34)c(=O)c2c1OC`: the IC50 in assay [1] is 4 µM; in assay [2] it was 4.8 µM; in assay [3], 5.2 µM; in assay [4] it was 0.84 µM; in assay [5], 4 µM.
For the molecule `O=C(/C=C/c1ccccc1)c1cccc2ccccc12`, the IC50 in assay [1] was found to be 6.2 µM; in assay [2] it was 5 µM; in assay [3], 6 µM; in assay [4] it was 5.4 µM; in assay [5], 9.8 µM.
Consider `CCOc1ccc(O)c(C(=O)/C=C/c2csc3ccccc23)c1`, for which the IC50 in assay [1] was 5.8 µM; in assay [2], 5.4 µM; in assay [3], 6.7 µM; in assay [4] it was 4.1 µM; in assay [5] it was 7.5 µM.
The like results for `COc1cccc(/C=C/C(=O)c2csc3ccccc23)c1` were, in that order, 5.7 µM, 5.5 µM, 6.2 µM, 5.4 µM and 7.5 µM.
For the molecule `COc1ccc(O)c(/C=C/C(=O)c2csc3ccccc23)c1`, the IC50 in assay [1] amounted to 5 µM; in assay [2] it was 4.7 µM; in assay [3] it was 5.4 µM; in assay [4], 4.4 µM; in assay [5], 5.9 µM.
Take `CC(C)Oc1ccc(O)c(C(=O)/C=C/c2csc3ccccc23)c1`: the IC50 in assay [1] was determined as 10 µM; in assay [2] it was 6.4 µM; in assay [3], 8.5 µM; in assay [4] it was 5.6 µM; in assay [5] it was 6.6 µM.
Take `COc1c(OC(C)C)cc2oc(-n3cncn3)c(-c3ccccc3)c(=O)c2c1OC(C)C`: the IC50 in assay [1], in assay [2], in assay [3], in assay [4] and in assay [5] was above 10 µM throughout.
Take `Cc1ccc(O)c(C(=O)/C=C/c2csc3ccccc23)c1`: the IC50 in assay [1] was 4.9 µM; in assay [2], 4.8 µM; in assay [3] it was 6 µM; in assay [4], 4.3 µM; in assay [5], 7.8 µM.
Regarding `O=C1/C(=C/c2csc3ccccc23)Oc2ccccc21`, the IC50 in assay [1], in assay [2], in assay [3], in assay [4] and in assay [5] was above 10 µM in each case.
As to `COc1c(OC(C)C)cc2occ(-c3ccccc3)c(=O)c2c1O`, the IC50 in assay [1], in assay [2], in assay [3], in assay [4] and in assay [5] was above 10 µM throughout.
Consider `O=C(/C=C/c1ccccc1)c1ccccc1` [CHALCONE], for which the IC50 in assay [1], in assay [2], in assay [3], in assay [4] and in assay [5] was above 10 µM throughout.
Regarding `COc1cc(O)c(C(=O)/C=C/c2csc3ccccc23)c(OC)c1OC`, the IC50 was determined as 6.7 µM in assay [1]; 5.3 µM in assay [2]; 6.9 µM in assay [3]; 4.9 µM in assay [4]; 7.7 µM in assay [5].
On the same counts, the results for `COc1cc(O)c(C(=O)/C=C/c2csc3ccccc23)cc1OC` are 0.52 µM, 0.45 µM, 0.69 µM, 0.27 µM and 0.71 µM.
As for `COc1cc2occ(-c3csc4ccccc34)c(=O)c2cc1OC`, the IC50 in assay [1], in assay [2], in assay [3], in assay [4] and in assay [5] was above 10 µM in each case.
`O=C(/C=C/c1cc2ccccc2s1)c1cc(Cl)cc(Cl)c1O`: the IC50 turned out to be 7.8 µM in assay [1]; 6.9 µM in assay [2]; 7.5 µM in assay [3]; 5.8 µM in assay [4]; 9.9 µM in assay [5].
`O=C(/C=C/c1csc2ccccc12)c1cc(Br)cc(Br)c1O`: the IC50 in assay [1] was 4.8 µM; in assay [2], 4.2 µM; in assay [3], 4.3 µM; in assay [4], 1 µM; in assay [5], 5.8 µM.
On the same counts, the results for `O=C(/C=C/c1csc2ccccc12)c1cc2c(cc1O)OCO2` are 5.1 µM, 4.8 µM, 6.2 µM, 2.1 µM and 6.9 µM.
The like results for `COc1ccc(O)c(C(=O)/C=C/c2cc3ccccc3s2)c1` were, in that order, above 10 µM, above 10 µM, above 10 µM, above 10 µM and above 10 µM.
The like results for `O=C1/C(=C/c2ccccc2)Oc2ccccc21` [(Z)-AURONE] were, in that order, above 10 µM, above 10 µM, above 10 µM, above 10 µM and above 10 µM.
For `O=C(/C=C/c1csc2ccccc12)c1cc(F)ccc1O`, the IC50 in assay [1] is 7.4 µM; in assay [2], 7.1 µM; in assay [3], 8.4 µM; in assay [4], 5.4 µM; in assay [5], above 10 µM.
The like results for `COc1c(O)cc2occ(-c3csc4ccccc34)c(=O)c2c1O` were, in that order, above 10 µM, above 10 µM, above 10 µM, above 10 µM and above 10 µM.
The like results for `COc1cc2occ(-c3csc4ccccc34)c(=O)c2c(OC)c1O` were, in that order, above 10 µM, above 10 µM, above 10 µM, above 10 µM and above 10 µM.
The like results for `COc1c(OC(C)C)cc2ccc(-c3cc(=O)c4ccccc4o3)cc2c1OC(C)C` were, in that order, above 10 µM, above 10 µM, above 10 µM, 8.2 µM and above 10 µM.
Turning to `CCOc1cc2occ(-c3csc4ccccc34)c(=O)c2c(OCC)c1OC`, the IC50 in assay [1] was determined as 4.2 µM; in assay [2], 2.6 µM; in assay [3], 1 µM; in assay [4], 0.67 µM; in assay [5] it was 3.1 µM.
On the same counts, the results for `COc1c(O)cc2occ(-c3ccccc3)c(=O)c2c1O` are above 10 µM, above 10 µM, above 10 µM, above 10 µM and above 10 µM.
On the same counts, the results for `COc1ccc(O)c(C(=O)/C=C/c2csc3ccccc23)c1` are 0.64 µM, 0.58 µM, 0.76 µM, 0.4 µM and 0.75 µM.
As to `O=C(/C=C/c1csc2ccccc12)c1cccc(Cl)c1`, the IC50 in assay [1], in assay [2], in assay [3], in assay [4] and in assay [5] was above 10 µM throughout.
As to `O=C(/C=C/c1ccc(Cl)cc1)c1csc2ccccc12`, the concentration for half-maximal inhibition (IC50) in assay [1] came out at 8.1 µM; in assay [2], 6.6 µM; in assay [3], 7.3 µM; in assay [4] it was 5.5 µM; in assay [5] it was 9.7 µM.
The like results for `COc1ccc(OC)c(C(=O)/C=C/c2csc3ccccc23)c1` were, in that order, 4.6 µM, 4.1 µM, 5.4 µM, 3.7 µM and 5.5 µM.
On the same counts, the results for `O=C(/C=C/c1csc2ccccc12)c1ccccc1O` are 6.2 µM, 5.3 µM, 5.3 µM, 5.4 µM and 6.6 µM.
In the case of `COc1c(OC(C)C)cc2c(c1O)C(=O)/C(=C/c1csc3ccccc13)O2`, the IC50 in assay [1], in assay [2], in assay [3], in assay [4] and in assay [5] was above 10 µM each time.
For the molecule `O=C(/C=C/c1csc2ccccc12)c1cc(Br)ccc1O`, the IC50 in assay [1] was determined as 0.76 µM; in assay [2], 0.66 µM; in assay [3] it was 0.84 µM; in assay [4], 0.47 µM; in assay [5] it was 1.04 µM.
On to `O=C(/C=C/c1csc2ccccc12)c1ccc2ccccc2c1O`, for which the IC50 in assay [1] is above 40 µM; in assay [2] it was 7.2 µM; in assay [3], above 10 µM; in assay [4], 8.2 µM; in assay [5] it was above 10 µM.
Turning to `O=C(/C=C/c1csc2ccccc12)c1cc(Cl)cc(Cl)c1O`, the IC50 in assay [1] is 4.6 µM; in assay [2] it was 3.7 µM; in assay [3] it was 3.3 µM; in assay [4], 0.83 µM; in assay [5] it was 5.8 µM.
The like results for `CC(C)=CCc1cc(C(=O)/C=C/c2csc3ccccc23)c(O)cc1O` were, in that order, 7.6 µM, 6 µM, 8.9 µM, 5.4 µM and 7.4 µM.
As for `COc1cc2c(=O)c(-c3csc4ccccc34)coc2c(OC)c1OC`, the IC50 in assay [1], in assay [2], in assay [3], in assay [4] and in assay [5] was above 10 µM throughout.
`COc1c(OC(C)C)cc2occ(-c3csc4ccccc34)c(=O)c2c1O`: the IC50 is above 10 µM in assay [1]; 7.2 µM in assay [2]; above 10 µM in assay [3]; above 10 µM in assay [4]; above 10 µM in assay [5].
